Experimental data from patent US20190010139A1 (priority 2015, published 2019).
Where two headings read alike, the source gives them in different places.

System: NL-RLuc virus
Test: Inhibition of HIV replication (NL-RLuc luciferase reporter virus in MT-2 cells)
Assay type: cell-based
Settings: Human immunodeficiency virus 1, MT2, 120 h
Source text: Inhibition of HIV Replication:
A recombinant NL-RLuc proviral clone was constructed in which a section of the nef gene from NL4-3 was replaced with the Renilla Luciferase gene. This virus is fully infectious and can undergo multiple cycles of replication in cell culture. In addition, the luciferous reporter provides a simple and easy method for quantitating the extent of virus growth and consequently, the antiviral activity of test compounds. The plasmid pNLRLuc contains the proviral NL-Rluc DNA cloned into pUC 18 at the PvuII site. The NL-RLuc virus was prepared by transfection of 293T cells with the plasmid pNLRLuc. Transfections were performed using the LipofectAMINE PLUS kit from Invitrogen (Carlsbad, Calif.) according to the manufacturer and the virus generated was titered in MT-2 cells. For susceptibility analyses, the titrated virus was used to infect MT-2 cells in the presence of compound, and after 5 days of incubation, cells were processed and quantitated for virus growth by the amount of expressed luciferase. Assay media was RPMI 1640 supplemented with 10% heat inactivated fetal bovine serum (FBS), 100 units/ml penicillin G/100 units/ml streptomycin, 10 mM HEPES buffer pH 7.55 and 2 mM L-glutamine. The results from at least 2 experiments were used to calculate the EC50 values. Luciferase was quantitated using the Dual Luciferase kit from Promega (Madison, Wis.). Susceptibility of viruses to compounds was determined by incubation in the presence of serial dilutions of the compound. The 50% effective concentration (EC50) was calculated by using the exponential form of the median effect equation where (Fa)=1/[1+(ED50/drug conc.)^m](Johnson V A, Byington R T. Infectivity Assay. In Techniques in HIV Research. ed. Aldovini A, Walker B D. 71-76. New York: Stockton Press.1990). Activity equal to A refers to a compound having an EC50≤100 nM, while B and C denote compounds having an EC50 between 100 nM and 1 uM (B) or >1 uM (C).

| SMILES | EC50 (read-out: Activity) [µM] | EC50 (read-out: EC50 μM) [µM] |
| --- | --- | --- |
| COc1cc(-c2c(C)nc(C)c([C@H](OC(C)(C)C)C(=O)O)c2N2CCC3(CCC3)CC2)ccc1C(=O)NCc1ccccc1 [Example 32, (S)-2-(5-(4-(Benzylcarbamoyl)-3-methoxyphenyl)-2,6-dimethyl-4-(7-azaspiro[3.5]nonan-7-yl)pyridin-3-yl)-2-(tert-butoxy)acetic acid] | < 0.1 | – |
| Cc1nc(COCC2CCOCC2)c(-c2ccc(OCCc3ccc(F)cc3)cc2)c(N2CCC3(CCC3)CC2)c1[C@H](OC(C)(C)C)C(=O)O [Example 51, (S)-2-(tert-Butoxy)-2-(5-(4-(4-fluorophenethoxy)phenyl)-2-methyl-4-(7-azaspiro[3.5]nonan-7-yl)-6-(((tetrahydro-2H-pyran-4-yl)methoxy)methyl)pyridin-3-yl)acetic acid] | < 0.1 | – |
| COCCNCc1nc(C)c([C@H](OC(C)(C)C)C(=O)O)c(N2CCC3(CCC3)CC2)c1-c1ccc(OCCc2ccc(F)cc2)cc1 [Example 42, (S)-2-(tert-Butoxy)-2-(5-(4-(4-fluorophenethoxy)phenyl)-6-(((2-methoxyethyl)amino)methyl)-2-methyl-4-(7-azaspiro[3.5]nonan-7-yl)pyridin-3-yl)acetic acid] | < 0.1 | 0.002 |
| Cc1nc(C)c([C@H](OC(C)(C)C)C(=O)O)c(N2CCC3(CC2)CC3)c1-c1ccc(OCCc2ccc(F)cc2)cc1 [Example 16, (S)-2-(tert-Butoxy)-2-(5-(4-(4-fluorophenethoxy)phenyl)-2,6-dimethyl-4-(6-azaspiro[2.5]octan-6-yl)pyridin-3-yl)acetic acid] | < 0.1 | 0.003 |
| Cc1nc(C)c([C@H](OC(C)(C)C)C(=O)O)c(N2CCC3(CCC3)CC2)c1-c1ccc(OCC(C)(C)c2ccc(F)cc2)cc1 [Example 28, (S)-2-(tert-butoxy)-2-(5-(4-(2-(4-fluorophenyl)-2-methylpropoxy)phenyl)-2,6-dimethyl-4-(7-azaspiro[3.5]nonan-7-yl)pyridin-3-yl)acetic acid] | < 0.1 | – |
| Cc1nc(C)c([C@H](OC(C)(C)C)C(=O)O)c(N2CCC3(CCCCC3)C2)c1-c1ccc(OCCc2ccc(F)cc2)cc1 [Example 62, (S)-2-(tert-Butoxy)-2-(5-(4-(4-fluorophenethoxy)phenyl)-2,6-dimethyl-4-(2-azaspiro[4.5]decan-2-yl)pyridin-3-yl)acetic acid] | < 0.1 | 0.017 |
| Cc1nc(COC2COC2)c(-c2ccc(OCCc3ccc(F)cc3)cc2)c(N2CCC3(CCC3)CC2)c1[C@H](OC(C)(C)C)C(=O)O [Example 58, (S)-2-(tert-Butoxy)-2-(5-(4-(4-fluorophenethoxy)phenyl)-2-methyl-6-((oxetan-3-yloxy)methyl)-4-(7-azaspiro[3.5]nonan-7-yl)pyridin-3-yl)acetic acid] | < 0.1 | – |
| Cc1nc(C)c([C@H](OC(C)(C)C)C(=O)O)c(N2CC3CCCC3C2)c1-c1ccc(OCCc2ccc(F)cc2)cc1 (stereo partly shown) [Example 3] | < 0.1 | – |
| Cc1nc(CF)c(-c2ccc(OCCc3ccc(F)cc3)cc2)c(N2CCC3(CCC3)CC2)c1[C@H](OC(C)(C)C)C(=O)O [Example 40, (S)-2-(tert-Butoxy)-2-(6-(fluoromethyl)-5-(4-(4-fluorophenethoxy)phenyl)-2-methyl-4-(7-azaspiro[3.5]nonan-7-yl)pyridin-3-yl)acetic acid] | < 0.1 | – |
| Cc1nc(CNC2CCOCC2)c(-c2ccc(OCCc3ccc(F)cc3)cc2)c(N2CCC3(CCC3)CC2)c1[C@H](OC(C)(C)C)C(=O)O [Example 55, (S)-2-(tert-Butoxy)-2-(5-(4-(4-fluorophenethoxy)phenyl)-2-methyl-4-(7-azaspiro[3.5]nonan-7-yl)-6-(((tetrahydro-2H-pyran-4-yl)amino)methyl)pyridin-3-yl)acetic acid] | < 0.1 | 0.001 |
| Cc1nc(C)c([C@H](OC(C)(C)C)C(=O)O)c(N2CC3CCC(C)(C2)C3(C)C)c1-c1ccc(C(=O)NCc2ccccc2)cc1 (stereo partly drawn) [Example 5, (S)-2-(5-(4-(Benzylcarbamoyl)phenyl)-2,6-dimethyl-4-(1,8,8-trimethyl-3-azabicyclo[3.2.1]octan-3-yl)pyridin-3-yl)-2-(tert-butoxy)acetic acid] | < 0.1 | – |
| Cc1nc(C)c([C@H](OC(C)(C)C)C(=O)O)c(N2CCC3(CCCC3)CC2)c1-c1ccc2c(c1)CCN(Cc1ccccc1F)C2 [Example 26, (S)-2-(tert-Butoxy)-2-(5-(2-(2-fluorobenzyl)-1,2,3,4-tetrahydroisoquinolin-6-yl)-2,6-dimethyl-4-(8-azaspiro[4.5]decan-8-yl)pyridin-3-yl)acetic acid] | < 0.1 | – |
| Cc1nc(C)c([C@H](OC(C)(C)C)C(=O)O)c(N2CCC3(CCCO3)CC2)c1-c1ccc(OCCc2ccc(F)cc2)cc1 [Example 66, (S)-2-(tert-Butoxy)-2-(5-(4-(4-fluorophenethoxy)phenyl)-2,6-dimethyl-4-(1-oxa-8-azaspiro[4.5]decan-8-yl)pyridin-3-yl)acetic acid] | < 0.1 | – |
| Cc1nc(C)c([C@H](OC(C)(C)C)C(=O)O)c(N2CCCC3(CCCC3)C2)c1-c1ccc(C(=O)NCc2ccccc2)cc1 [Example 19, (S)-2-(5-(4-(Benzylcarbamoyl)phenyl)-2,6-dimethyl-4-(7-azaspiro[4.5]decan-7-yl)pyridin-3-yl)-2-(tert-butoxy)acetic acid] | 0.1 to 1 | – |
| Cc1nc(C)c([C@H](OC(C)(C)C)C(=O)O)c(N2CC[C@H]3CCCC[C@H]3C2)c1-c1ccc(C(=O)NCc2ccccc2)cc1 [Example 11, (S)-2-(5-(4-(Benzylcarbamoyl)phenyl)-2,6-dimethyl-4-((4aR,8aR)-octahydroisoquinolin-2(1H)-yl)pyridin-3-yl)-2-(tert-butoxy)acetic acid] | < 0.1 | – |
| Cc1nc(C)c([C@H](OC(C)(C)C)C(=O)O)c(N2CCc3ccccc3C2)c1-c1ccc(OCCc2ccc(F)cc2)cc1 [Example 2, (S)-2-(tert-Butoxy)-2-(4-(3,4-dihydroisoquinolin-2(1H)-yl)-5-(4-(4-fluorophenethoxy)phenyl)-2,6-dimethylpyridin-3-yl)acetic acid] | – | 0.036 |
| Cc1nc(C)c([C@H](OC(C)(C)C)C(=O)O)c(N2CC3C(C2)C3(C)C)c1-c1ccc(C(=O)NCc2ccccc2)cc1 (stereo partly drawn) [Example 9, (2S)-2-(5-(4-(Benzylcarbamoyl)phenyl)-4-(6,6-dimethyl-3-azabicyclo[3.1.0]hexan-3-yl)-2,6-dimethylpyridin-3-yl)-2-(tert-butoxy)acetic acid] | < 0.1 | 0.083 |
| Cc1nc(C)c([C@H](OC(C)(C)C)C(=O)O)c(N2CCC3(CCCC3)CC2)c1-c1ccc(OCCc2ccc(F)cc2)cc1 [Example 20, (S)-2-(tert-Butoxy)-2-(5-(4-(4-fluorophenethoxy)phenyl)-2,6-dimethyl-4-(8-azaspiro[4.5]decan-8-yl)pyridin-3-yl)acetic acid] | < 0.1 | – |
| Cc1nc(C)c([C@H](OC(C)(C)C)C(=O)O)c(N2CCC3(CCCCCC3)C2)c1-c1ccc(C(=O)NCc2ccccc2)cc1 [Example 65, (S)-2-(5-(4-(Benzylcarbamoyl)phenyl)-2,6-dimethyl-4-(2-azaspiro[4.6]undecan-2-yl)pyridin-3-yl)-2-(tert-butoxy) acetic acid] | < 0.1 | – |
| Cc1nc(C)c([C@H](OC(C)(C)C)C(=O)O)c(N2CCC3(CCCC3)C2)c1-c1ccc(OCCc2ccc(F)cc2)cc1 [Example 14, (S)-2-(tert-Butoxy)-2-(5-(4-(4-fluorophenethoxy)phenyl)-2,6-dimethyl-4-(2-azaspiro[4.4]nonan-2-yl)pyridin-3-yl)acetic acid] | < 0.1 | – |
